These results are taken from US20260109672A1, “SARS-COV-2 MPRO INHIBITORS AND USES THEREOF” (NXERA PHARMA UK LIMITED, priority 2022, published 2026).

Data set [1] relates to P-glycoprotein (P-gp, MDR1). The data set can be described thus: MDCK-MDR1 permeability and P-gp substrate assay. The data set is classed as in vitro ADME, canine. As to conditions: dog, pH 7.4, MDCK-MDR1, apical to basolateral, without P-gp inhibitor. As for the experimental part: Permeability and drug efflux of certain example compounds was investigated using the following assay.
Test compound was added to either the apical side of a confluent monolayer of MDCK-MDR1 (Madin-Darby canine kidney cells stably transfected to express active P-glycoprotein) and permeability was measured by monitoring the appearance of the test compound on the basolateral side of the monolayer using LC-MS/MS. Experiments were performed in the absence and presence of a P-glycoprotein (P-gp) inhibitor elacridar (2 μM) to determine whether the compound was subject to P-gp mediated efflux.
MDCK-MDR1 cells obtained from the NIH (Rockville, MD, USA) were used between passage numbers 6-30. […]
For assessment of A-B permeability, HBSS was removed from the apical compartment and replaced with test compound dosing solution or test compound plus P-gp inhibitor dosing solutions. […] Test compound permeability was assessed in duplicate. […]
Test and control compounds were quantified by LC-MS/MS cassette analysis using a 7-point calibration with appropriate dilution of the samples. The starting concentration (C0) was determined from the dosing solution and the experimental recovery calculated from C0 and both apical and basolateral compartment concentrations.
The permeability coefficient (Papp) for each compound in the absence and presence of a P-gp inhibitor was calculated from the following equation: […]

Data set [2] addresses T1, SARS-CoV-2 Mpro (Severe acute respiratory syndrome coronavirus 2, UniProt P0DTD1). As to the kind of experiment: SARS-CoV-2 Mpro enzyme assay (FRET). The data set is classed as biochemical. The following applies: 20 nM Mpro, 30 min preincubation at 30° C., mean n=2, read-out: SARS-CoV-2 Mpro enzyme pKi assay pKi (converted).
The target in data set [3] is T1, SARS-CoV-2 Mpro. As to the kind of experiment: Modified SARS-CoV-2 Mpro enzyme assay (FRET, kinetic read) for reference examples. Format: biochemical. The following applies: 5 nM Mpro, 20 min preincubation at room temperature, mean n=2, set out in PCT/GB2022/050836, read-out: SARS-CoV-2 Mpro enzyme pKi assay pKi (converted).
For data set [4] the following is noted: Pedersen et al.; cited from earlier work.
Data set [5] has as its system ten further coronavirus strains. As to conditions: read-out: Ki values against ten further coronavirus strains; cited from earlier work.
A further data set relates to live virus. The following applies: cited from earlier work.
The next data set concerns SARS-CoV-2 infection. As to conditions: approved in selected countries for limited use; Zhou et al.; cited from earlier work.

The term Papp A→B denotes how fast a substance crosses the layer from the apical side. A low value points to poor permeation. For `CNC(=O)C(=O)C(CC1CC1)NC(=O)[C@@H]1[C@@H]2[C@H](CN1C(=O)[C@@H](NC(=O)C(F)(F)F)C(C)(C)C)C2(C)C` (stereo partly drawn) [Example 2, (1R,2S,5S)-N-[1-(cyclopropylmethyl)-3-(methylamino)-2,3-dioxo-propyl]-3-[(2S)-3,3-dimethyl-2-[(2,2,2-trifluoroacetyl)amino]butanoyl]-6,6-dimethyl-3-azabicyclo[3.1.0]hexane-2-carboxamide], the Papp A→B at 60 min, 1 μM in data set [1] is 2.2 ×10⁻⁶ cm/s. The Ki on SARS-CoV-2 Mpro [2] is 20 nM.

`CC1(C)[C@@H]2[C@@H](C(=O)NC(C[C@@H]3CCNC3=O)C(=O)C(=O)NC3CC3)N(C(=O)/C=C/c3ccc(F)cc3F)C[C@@H]21` (stereo partly drawn) [Example 7, (1R,2S,5S)-N-(4-(cyclopropylamino)-3,4-dioxo-1-((S)-2-oxopyrrolidin-3-yl)butan-2-yl)-3-((E)-3-(2,4-difluorophenyl)acryloyl)-6,6-dimethyl-3-azabicyclo[3.1.0]hexane-2-carboxamide]: the Ki on SARS-CoV-2 Mpro [2] was 63.1 nM.

Take `CC(C)C(=O)N[C@H](C(=O)N1C[C@H]2[C@@H]([C@H]1C(=O)NC(CC1CC1)C(=O)C(=O)C#N)C2(C)C)C(C)(C)C` (some centres unmarked) [Example 27]: the Ki on SARS-CoV-2 Mpro [3] was over 5010 nM.

Regarding `CC(C)C[C@H](NC(=O)OCc1ccccc1)C(=O)N[C@@H](C[C@@H]1CCNC1=O)C(O)S(=O)(=O)[O-].[Na+]` (some centres unmarked) [GC376], the “Side effects in trials performed in cats” value in data set [4] is on record as “side effects”.

Consider `CC(C)(C)[C@H](NC(=O)C(F)(F)F)C(=O)N1C[C@H]2[C@@H]([C@H]1C(=O)NC(C[C@@H]1CCNC1=O)C(=O)C(=O)NC1CC1)C2(C)C` (stereo partly drawn) [Example 1, (1R,2S,5S)-N-(4-(cyclopropylamino)-3,4-dioxo-1-((S)-2-oxopyrrolidin-3-yl)butan-2-yl)-3-((S)-3,3-dimethyl-2-(2,2,2-trifluoroacetamido)butanoyl)-6,6-dimethyl-3-azabicyclo[3.1.0]hexane-2-carboxamide], for which the Papp A→B at 60 min, 1 μM in data set [1] was 0.9 ×10⁻⁶ cm/s. The Ki at SARS-CoV-2 Mpro [2] is 3.98 nM.

For `CC(C)(C)[C@H](NC(=O)C(F)(F)F)C(=O)N1C[C@H]2[C@@H]([C@H]1C(=O)NC(CC1CCC1)C(=O)C(N)=O)C2(C)C` (stereo partly drawn) [Example 4, (1R,2S,5S)-N-[3-amino-1-(cyclobutylmethyl)-2,3-dioxo-propyl]-3-[(2S)-3,3-dimethyl-2-[(2,2,2-trifluoroacetyl)amino]butanoyl]-6,6-dimethyl-3-azabicyclo[3.1.0]hexane-2-carboxamide], on SARS-CoV-2 Mpro [2], the Ki was 79.4 nM.

On to `CC(C)(C)[C@H](NC(=O)C(F)(F)F)C(=O)N1C[C@H]2[C@@H]([C@H]1C(=O)NC(C[C@H]1CCCNC1=O)C(=O)C(=O)NC1CC1)C2(C)C` (stereo partly drawn) [Example 6, (1R,2S,5S)-N-[3-(cyclopropylamino)-2,3-dioxo-1-[[(3R)-2-oxo-3-piperidyl]methyl]propyl]-3-[(2S)-3,3-dimethyl-2-[(2,2,2-trifluoroacetyl)amino]butanoyl]-6,6-dimethyl-3-azabicyclo[3.1.0]hexane-2-carboxamide], for which, on SARS-CoV-2 Mpro [2], the Ki is 10 nM.

Regarding `CC(C)C(=O)N[C@H](C(=O)N1C[C@H]2[C@@H]([C@H]1C(=O)NC(C[C@@H]1CCNC1=O)C(=O)C(=O)NC1CC1)C2(C)C)C(C)(C)C` (some centres unmarked) [Example 5], the Ki on SARS-CoV-2 Mpro [2] was 15.8 nM.

With `CC(C)[C@H](NC(=O)C(F)(F)F)C(=O)N1C[C@H]2[C@@H]([C@H]1C(=O)NC(CC1CC1)C(=O)C(N)=O)C2(C)C` (stereo partly drawn) [Example 3, (1R,2S,5S)-N-[3-amino-1-(cyclopropylmethyl)-2,3-dioxo-propyl]-6,6-dimethyl-3-[(2S)-3-methyl-2-[(2,2,2-trifluoroacetyl)amino]butanoyl]-3-azabicyclo[3.1.0]hexane-2-carboxamide], on SARS-CoV-2 Mpro [2], the Ki was 63.1 nM.

For PF-00835231, the Ki in data set [5] is 0.03 to 4 nM. For the same compound, in the data set on live virus, the “Activity in cell-based live virus assays” value was about 1 µM.

Regarding `NC(=O)c1nc(F)c[nH]c1=O` [favipiravir], in the data set on SARS-CoV-2 infection, the “Effect in treatment of SARS-CoV-2 infection” value is given as “modest effects”.
